Results: patent US20140057977A1, “Induction of Arteriogenesis” (G. Pohl-Boskamp GmbH & Co. KG, priority 2012, published 2014)
Several values for one entry are separate records, joined by “and”; a condition that tells them apart may be missing. Identical values can stand only once. Entries after “also recorded” stand apart in the source; their conditions may differ.

Legend:
Format in all cases: in vivo
rat heart [1] = assay: ST segment elevation (ECG) during final permanent LAD occlusion (FPO), rat repetitive ischemia protocol (RIP) arteriogenesis model
rat heart [2] = assay: Ventricular arrhythmias during FPO, Lown classification and VPB score
rat heart [3] = assay: Infarct size by TTC staining after 90 minutes of LAD occlusion; details: for Infarct size: 90 min LAD occlusion, percentage of the area of the left ventricle

CC(=O)Oc1ccccc1C(=O)O [ASA+NTG-PLACEBO, acetyl salicylic acid]
ST segment elevation (rat heart [1]; 5 DAYS RIP, after FPO): 0.144±0.091 mV | rats with class IIIa arrhythmias (rat heart [2]; 5 DAYS RIP, during FPO): 16.7% | rats with class IVb arrhythmias (rat heart [2]; 5 DAYS RIP, during FPO): 83.3% | VPB-Score (rat heart [2]; RIP (Modules 2-4)): 5.50 | Infarct size (rat heart [3]; 5 DAYS RIP): 13.92±1.71% | Infarct size (rat heart [3]; 5 DAYS RIP, listed as NTG-PLACEBO+ASS): 13.92±1.71%

O=[N+]([O-])O[C@H]1CO[C@H]2[C@@H]1OC[C@H]2O[N+](=O)[O-] [ISDN, isosorbide dinitrate]
ST segment elevation compared to controls (in words) (rat heart [1]; rat, in vivo): lower ST segment elevation course; also recorded: decreased compared to the PBS group but there is no significance; also recorded: non-significantly decreased; also recorded: decreases in ST elevation | arrhythmias / VPB-Score compared to controls (in words) (rat heart [2]; rat, in vivo): less arrhythmias | infarct size compared to controls (in words) (rat heart [3]; rat, in vivo): smaller compared to controls (treated with PBS or ISDN-Placebo), but there is no significance; also recorded: smaller; also recorded: reduced infarct volumes

O=[N+]([O-])OCC(CO[N+](=O)[O-])O[N+](=O)[O-] [NTG, nitroglycerin]
ST segment elevation compared to controls (in words) (rat heart [1]; rat, in vivo): lower ST segment elevation course; also recorded: significantly decreased; also recorded: significantly attenuated ST elevation | VPB-Score (rat heart [2]; rat, in vivo): 5.77 and 3.60 | arrhythmias / VPB-Score compared to controls (in words) (rat heart [2]; rat, in vivo): more often scaled into grade 0; also recorded: reduced arrhythmias; also recorded: decreased serious arrhythmias | rats with class 0 arrhythmias (rat heart [2]; rat, in vivo): 57.1% | rats with class IIIa arrhythmias (rat heart [2]; rat, in vivo): 14.3% | rats with class IVb arrhythmias (rat heart [2]; rat, in vivo): 85.7% and 42.9% | decrease of infarct volume compared to the control group (rat heart [3]; rat, in vivo): more than 50% | infarct size compared to controls (in words) (rat heart [3]; rat, in vivo): significantly smaller infarct area; also recorded: decreases the size of an experimentally induced myocardial infarct

CC(=O)Oc1ccccc1C(=O)O [ASA+PBS, acetyl salicylic acid]
ST segment elevation compared to controls (in words) (rat heart [1]; 5 DAYS RIP, after FPO): higher compared to the PBS control group, but there is no significance | arrhythmias / VPB-Score compared to controls (in words) (rat heart [2]; 5 DAYS RIP, during FPO): higher compared to the controls | Infarct size (rat heart [3]; 5 DAYS RIP): 12.51±3.05% | infarct size compared to controls (in words) (rat heart [3]; 5 DAYS RIP, listed as ASA): increase of infarct volumes | infarct size compared to controls (in words) (rat heart [3]; 5 DAYS RIP, listed as ASS+PBS): minimally increased
